Measured values taken from ChEMBL document CHEMBL5230176, “X-ray structure of human aldo-keto reductase 1C3 in complex with a bile acid fused tetrazole inhibitor: experimental validation, molecular docking and structural analysis” (RSC Med Chem, 2023).
Calls of active or inactive are those of the source. No cut-off for these calls is given here.

biological target: T1, Aldo-keto reductase family 1 member C2 (Homo sapiens) (UniProt P52895); assay: Inhibition of 6 His-tagged human AKR1C2 expressed in Escherichia coli BL21 (DE3) cells using 9,10-phenanthrenequinone as substrate assessed as substrate reduction by measuring change in NADPH consumption at 40 uM incubated for 15 mins by absorbance based spectroscopic analysis relative to control
T1 sequence (whole entry): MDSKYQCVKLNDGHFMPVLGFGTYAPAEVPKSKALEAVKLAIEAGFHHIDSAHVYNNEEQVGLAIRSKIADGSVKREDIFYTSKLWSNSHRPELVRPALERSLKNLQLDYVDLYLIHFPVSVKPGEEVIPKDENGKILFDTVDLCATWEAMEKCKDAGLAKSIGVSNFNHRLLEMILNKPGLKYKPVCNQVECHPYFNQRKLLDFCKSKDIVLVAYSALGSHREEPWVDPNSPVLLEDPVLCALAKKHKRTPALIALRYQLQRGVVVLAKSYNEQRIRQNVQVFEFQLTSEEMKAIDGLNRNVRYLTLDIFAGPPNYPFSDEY

Row | SMILES | inhibition
1 | C[C@H](CCC(=O)O)[C@H]1CC[C@H]2[C@@H]3CC[C@@H]4C[C@H](O)CC[C@]4(C)[C@H]3Cc3nnnn3[C@]12C | 13%

biological target: T2, Aldo-keto reductase family 1 member C3 (Homo sapiens) (UniProt P42330); assay: Inhibition of 6 His-tagged human AKR1C3 expressed in Escherichia coli BL21 (DE3) cells using 9,10-phenanthrenequinone as substrate assessed as substrate reduction by measuring change in NADPH fluorescence at 33.3 uM incubated for 30 mins by fluorescence spectroscopic analysis relative to control
T2 sequence (whole entry): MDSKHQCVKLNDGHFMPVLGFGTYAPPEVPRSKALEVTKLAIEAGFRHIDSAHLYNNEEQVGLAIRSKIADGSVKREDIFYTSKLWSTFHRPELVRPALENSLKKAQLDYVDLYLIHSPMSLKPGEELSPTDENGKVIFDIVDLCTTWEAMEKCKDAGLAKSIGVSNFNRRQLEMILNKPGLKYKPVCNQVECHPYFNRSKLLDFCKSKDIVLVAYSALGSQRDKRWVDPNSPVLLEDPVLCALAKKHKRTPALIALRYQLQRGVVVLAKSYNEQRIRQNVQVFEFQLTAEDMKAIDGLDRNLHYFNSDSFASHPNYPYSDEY

Row | SMILES | inhibition
2 | CCOC(=O)CC[C@@H](C)[C@H]1CC[C@H]2[C@H]3[C@H](CC[C@]12C)[C@@]1(C)CC[C@@H](OC(C)=O)C[C@H]1Cc1nnnn13 | inactive
3 | C[C@H](CCC(=O)O)[C@H]1CC[C@H]2[C@@H]3CC[C@@H]4C[C@H](O)CC[C@]4(C)[C@H]3Cc3nnnn3[C@]12C | 77.9%
4 | C[C@H](CCC(=O)O)[C@H]1CC[C@H]2[C@H]3[C@H](C[C@H](O)[C@]12C)[C@@]1(C)CC[C@@H](O)C[C@H]1Cc1nnnn13 | inactive
5 | COC(=O)CC[C@@H](C)[C@H]1CC[C@H]2[C@H]3[C@H](C[C@H](OC(C)=O)[C@]12C)[C@@]1(C)CC[C@@H](OC(C)=O)C[C@H]1Cc1nnnn13 | inactive
6 | C[C@H](CCC(=O)O)[C@H]1CC[C@H]2[C@H]3[C@H](CC[C@]12C)[C@@]1(C)CC[C@@H](O)C[C@H]1Cc1nnnn13 | 14.2%
